Laboratory results from patent US20040186066A1, “Method of treatment with nelfinavir” (AGOURON PHARMACEUTICALS, INC., priority 2003, published 2004).
Marks after values point to notes of the source that are not given here.

Assays:
[1] = Example 1: phase I crossover food-effect study, single-dose pharmacokinetics of nelfinavir 250 mg tablets (total kilocalories and fat); format: in vivo, human (normal healthy volunteers); conditions: for bioavailability of M8 higher relative to fasting, based on AUC(0-∞): M8 after 1250 mg nelfinavir
Description: A phase I, randomized, open-label crossover study to evaluate the impact of total kilocalories and fat content on single-dose pharmacokinetic parameters of the nelfinavir 250 mg tablet formulation in normal healthy volunteers was performed. Healthy volunteers entered the study and received the following treatment in random order at least 1 week apart: 1) 5×250 mg nelfinavir tablets, fasted 2) 5×250 mg nelfinavir tablets (breakfast meal 1, 125 Kcal/20% fat=low cal/low fat) 3) 5×250 mg nelfinavir tablets (breakfast meal 2, 500 Kcal/20% fat=medium cal/low fat) 4) 5×250 mg nelfinavir tablets (breakfast meal 3, 1000 Kcal/50% fat=high cal/high fat). Plasma concentrations of nelfinavir and its active hydroxy-t-butylamide metabolite (M8) were measured by validated high performance liquid chromatography (HPLC) methods. Pharmacokinetic parameters were determined from plasma concentration-time data using standard methods. Nelfinavir was administered as five 250-mg tablets with 240 mL of water. All subjects received a standardized snack the evening they were admitted to the in-patient facility. For the fasting evaluation, subjects were required to complete an overnight fast of at least 10 hours prior to dosing in the morning. For the fed pharmacokinetic evaluations, subjects were required to complete an overnight fast of at least 10 hours, prior to receiving the protocol-specific standardized breakfast meal (that is, Meal 1, Meal 2, or Meal 3). Subjects were given 30 minutes to complete their standardized breakfast meal. Dosing was performed in the morning, immediately following the subject's completion of the standardized breakfast meal and after the subject's pre-dose pharmacokinetic specimen had been collected. Subjects could not ingest water 1 hour prior to or 1 hour after dosing. A standardized lunch was given at least 4 hours after the morning dose and a standardized dinner was given at least 10 hours after the morning dose. For pharmacokinetic sampling, blood samples, 5 mL each, were collected into heparinized vacuum tubes (green top tubes) via an indwelling catheter or direct venipuncture. The actual time of each collection was recorded on the source document. The timing of each sample collection was as follows: predose and at 0.5, 1, 2, 3, 4, 6, 8, and 12 hours postdose on Days 1, 8,15, and 22. Pharmacokinetic parameter values were calculated using WinNonlin Pro Version 2.1. Individual nelfinavir plasma concentrations were used to predict steady-state plasma concentrations during BID administration with meals of various Kcal content. WinNonlin Pro Version 3.2 noncompartmental superposition was used for this simulation. Predicted steady-state Cmax and Cmin values were compared.

[2] = Example 2: phase 1 crossover 3×3 study, fixed kilocalorie meal at 20% and 50% fat, single-dose pharmacokinetics of nelfinavir 250 mg tablets; format: in vivo, human (normal, healthy volunteers)
Description: A study was conducted as a phase 1, randomized, open-label, crossover 3×3 study, designed to evaluate the impact of a fixed kilocalorie meal at 20% and 50% fat content on single-dose pharmacokinetic parameters of the nelfinavir 250 mg tablet formulation in normal, healthy volunteers. Subjects were dosed with 1250 mg of nelfinavir 3 times at one-week intervals and 24-hour PK profiles were collected following each of the doses. Each subject was assigned three meals with different fat contents prior to dosing (fasting, 500kcal with 20% fat, 500 kcal with 50% fat) using a Latin square design. Twenty-four subjects entered the study and twenty-two subjects completed it. Each subject received the following treatment in random order on Days 1, 8 and 15: 5×250 mg nelfinavir tablets with fasting; 5×250 mg nelfinavir tablets, with a meal comprising 500Kcal/20% fat; and 5×250 mg nelfinavir tablets with a meal having 500 Kcal/50% fat. The moderate calorie/low fat meal consisted of 500 Kcal with 20% fat (11.3 grams of fat). The moderate calorie/high fat meal consisted of 500 Kcal with 50% fat (27.8 grams of fat). Subjects were administered nelfinavir 1250-mg (five 250-mg tablets) on the morning of the pharmacokinetic evaluations. The nelfinavir terminal half-life (t½) in plasma is typically 3.5 to 5 hours. […] Subjects participated on an outpatient basis; however, subjects were admitted to the in-patient facility the evening prior to each PK evaluation and remained in the in-patient facility for approximately 16 hours post-dosing. The subjects returned the next morning (8 hours later) for their last 24 hr. pharmacokinetic blood draw. All pharmacokinetic evaluations were performed in the in-patient facility. Blood samples were collected and analyzed for plasma concentrations of nelfinavir and M8. For the fasting evaluation, subjects were required to complete an overnight fast of at least 10 hours prior to dosing in the morning. For the fed PK evaluations, subjects were required to complete an overnight fast of at least 10 hours, prior to receiving the protocol-specific standardized breakfast meal. Subjects were given 30 minutes to complete their standardized breakfast meal. Dosing was performed in the morning, immediately following the subject's completion of the standardized breakfast meal and after the subject's predose PK specimen had been collected. Subjects could not ingest water 1 hour prior to or 1 hour after dosing. A standardized lunch was given at least 4 hours after the morning dose and a standardized dinner was given at least 10 hours after the morning dose. Actual sampling times were used for all data evaluation. Mean Cmax and AUC values were calculated as the antilogs of least-squares mean log-transformed values (analogous to geometric means). Ratios and confidence intervals for Cmax and AUC values are also based on log-transformed values. Mean values for all other pharmacokinetic parameters are least-squares means. Ratios and confidence intervals for these parameters are based on untransformed values. Blood samples, 5 mL each, were collected as in Example 1. The timing of each sample collection was as follows: Predose and at 0.5, 1, 2, 3, 4, 6, 8, 12, 16 and 24 hours postdose on Days 1, 8, and 15. All blood samples were kept at […] (using either wet ice or cryoblock) until centrifugation. Blood samples were centrifuged within 1 hour of collection, at 3000 rpm (approximately 2619×g) for 15 minutes, to separate the plasma. The plasma samples were split evenly into 2 aliquots and stored in appropriately labeled polypropylene transport tubes. Plasma was stored frozen at […] or lower until analysis. Pharmacokinetic parameter values were calculated from plasma nelfinavir and M8 concentration-time data using standard noncompartmental pharmacokinetic methods as in Example 1. Plasma concentrations of nelfinavir and M8 were measured by validated high-performance liquid chromatography (HPLC) methods. […]

[3] = with increasing food intake; cited from earlier work
[4] = M8 after 1250-mg nelfinavir oral dose, fasting (reference)
[5] = M8 after 1250-mg nelfinavir with high calorie/high fat/high protein meal
[6] = M8 after 1250-mg nelfinavir with low calorie/low fat/low protein meal
[7] = M8 after 1250-mg nelfinavir with moderate calorie/low fat/moderate protein meal
[8] = high calorie/high fat/high protein meal vs fasting
[9] = low calorie/low fat/low protein meal vs fasting
[10] = moderate calorie/low fat/moderate protein meal vs fasting

M8 AUCinf/NFV AUCinf (%) ([1]; 1250 mg nelfinavir single oral dose, fasting): 26.5%
bioavailability of M8 higher relative to fasting, based on AUC(0-∞) ([1]; high calorie meal (1000 Kcal)): 4.1 fold
bioavailability of M8 higher relative to fasting, based on AUC(0-∞) ([1]; low calorie meal (125 Kcal)): 1.3 fold
bioavailability of M8 higher relative to fasting, based on AUC(0-∞) ([1]; moderate calorie meal (500 Kcal)): 1.8 fold
M8 AUC(0-tlqc), least-squares mean [1, 4]: 0.655^a μg · hr/mL
M8 AUC(0-∞), least-squares mean [1, 4]: 2.81^c μg · hr/mL
M8 t1/2, least-squares mean [1, 4]: 2.68^c hr
M8 tmax, least-squares mean [1, 4]: 3.45^b hr
M8 AUC(0-tlqc), least-squares mean [1, 5]: 7.58^g μg · hr/mL
M8 AUC(0-∞), least-squares mean [1, 5]: 11.5^a μg · hr/mL
M8 Cmax, least-squares mean [1, 5]: 1.28^g μg/mL
M8 t1/2, least-squares mean [1, 5]: 3.90^a hr
M8 tmax, least-squares mean [1, 5]: 5.01^a hr
M8 AUC(0-tlqc), least-squares mean [1, 6]: 2.01^d μg · hr/mL
M8 AUC(0-∞), least-squares mean [1, 6]: 3.66^f μg · hr/mL
M8 Cmax, least-squares mean [1, 6]: 0.533^d μg/mL
M8 t1/2, least-squares mean [1, 6]: 2.40^f hr
M8 tmax, least-squares mean [1, 6]: 3.88^e hr
M8 AUC(0-tlqc), least-squares mean [1, 7]: 3.46^a μg · hr/mL
M8 AUC(0-∞), least-squares mean [1, 7]: 5.11^e μg · hr/mL
M8 Cmax, least-squares mean [1, 7]: 0.693^a μg/mL
M8 t1/2, least-squares mean [1, 7]: 2.96^e hr
M8 tmax, least-squares mean [1, 7]: 4.49^a hr
M8 Cmax, least-squares mean ([1]; M8 in plasma after 1250-mg nelfinavir oral dose, fasting (reference)): 0.228^a μg/mL
M8 AUC/nelfinavir AUC ([1]; fed state): 15-21%
M8 AUCinf/NFV AUCinf (%) ([1]; food intake 125 kcal/20% fat): 15.8%
M8 AUCinf/NFV AUCinf (%) ([1]; food intake 500 kcal/20% fat): 15.3%
M8 AUCinf/NFV AUCinf (%) ([1]; food intake 1000 kcal/50% fat): 20.8%
M8 AUC(0-tlqc) ratio (100% × test/reference) [1, 8]: 1157%
M8 AUC(0-∞) ratio (100% × test/reference) [1, 8]: 408%
M8 Cmax ratio (100% × test/reference) [1, 8]: 562%
M8 t1/2 ratio (100% × test/reference) [1, 8]: 145%
M8 tmax ratio (100% × test/reference) [1, 8]: 145%
M8 AUC(0-tlqc) ratio (100% × test/reference) [1, 9]: 343%
M8 AUC(0-∞) ratio (100% × test/reference) [1, 9]: 130%
M8 Cmax ratio (100% × test/reference) [1, 9]: 234%
M8 t1/2 ratio (100% × test/reference) [1, 9]: 89.4%
M8 tmax ratio (100% × test/reference) [1, 9]: 113%
M8 AUC(0-tlqc) ratio (100% × test/reference) [1, 10]: 529%
M8 AUC(0-∞) ratio (100% × test/reference) [1, 10]: 182%
M8 Cmax ratio (100% × test/reference) [1, 10]: 304%
M8 t1/2 ratio (100% × test/reference) [1, 10]: 110%
M8 tmax ratio (100% × test/reference) [1, 10]: 130%
M8 AUC∞/Nelfinavir AUC∞(%) ([2]; 1250 mg nelfinavir single dose, fasting): 8.6%
M8 AUC∞/Nelfinavir AUC∞(%) ([2]; Kcal/Fat % 500/20%): 8.7%
M8 AUC∞/Nelfinavir AUC∞(%) ([2]; Kcal/Fat % 500/50%): 11.4%
mean M8 AUC(0-∞) higher relative to fasting subjects ([2]; test meal containing 20% fat): 3 fold
mean M8 AUC(0-∞) higher relative to fasting subjects ([2]; test meal containing 50% fat): 6.8 fold
percentage of M8 relative to nelfinavir ([2]; remained the same with increasing fat intake): around 10%
SMILES: Cc1c(O)cccc1C(=O)N[C@@H](CSc1ccccc1)[C@H](O)CN1C[C@H]2CCCC[C@H]2C[C@H]1C(=O)NC(C)(C)CO [M8]
M8 concentrations relative to nelfinavir [3]: 15-20%
